Patent publication US10722532B2, “Polymer-conjugated METAP2 inhibitors, and therapeutic methods of use thereof” (SynDevRx, Inc., priority 2010, dated 2020)
≈ marks a conversion by molar mass, not a printed value. Where two headings read alike, the source gives them in different places.

Tests used:
[1] = tested on: A549 cells; assay: A549 human non-small cell lung carcinoma cell viability assay (CellTiter-Glo); format: cell-based; settings: small molecules, 72 hours exposure
Protocol: (§1) Test compounds, small molecules or polymer conjugates, were dissolved in dimethyl sulfoxide to a stock concentration of 5 mg/mL. The test agents were then diluted to an intermediate concentration at 200 μg/mL in 10% DMSO. Further dilutions were completed serially 3-fold in 10% DMSO to produce 12 decreasing concentrations for in-vitro analysis. To achieve the target concentrations of the in-vitro assays, […] of the intermediate drug preparation was delivered to the cells (seeded in a volume of 50 μL). The final DMSO concentration for the tests was 0.2% for all doses of test agent.
(§2) Cells were exposed to twelve increasing concentrations of formulated test agent from 2×10^−6 to 4.0 μg/mL for 72 hours. Following 72 hour exposure, 25 μL of CellTiter-Glo® Reagent was added to each well. The plates were incubated for 60 minutes at 37° C. in a humidified incubator. After incubation, luminescence was recorded using the Molecular Devices AnalystGT multi-mode reader.
(§3) Data are expressed as the percent cell growth of the untreated (vehicle) control calculated from the luminescence signals. The surviving fraction of cells is determined by dividing the mean luminescence values of the test agents by the mean luminescence values of untreated control. The inhibitory concentration value for the test agent(s) and control were estimated using Prism 5 software (GraphPad Software, Inc.) by curve-fitting the data using the non-linear regression analysis.
The human tumor cell lines A549 and HCT-116 were obtained from American Type Culture Collection (Manassas, Va.). The Human umbilical vein epithelial cells (HUVEC) were obtained from Lonza (Basel, Switzerland). The A549 cells were maintained RPMI 1640 w/L-glut supplemented with 5% FBS. The HCT-116 cells were maintained in McCoy's 5a supplemented with 5% FBS. The HUVEC line was grown in Endothelial Growth Medium with supplements and growth factors (BBE, hydrocortisone, hEGF, FBS and gentamicin/amphotericin-B). All cells were house in an atmosphere of 5% CO2 at 37° C. Cells were dissociated with 0.05% Trypsin and 0.02% EDTA.
(§4) The human tumor cell line A549 was obtained from American Type Culture Collection (Manassas, Va.). The A549 cells were maintained RPMI 1640 w/L-glut supplemented with 5% FBS. A549 cells were seeded at 500 cells per well 24 hours prior to test agent exposure in a volume of 50 μL. The cells were housed in an atmosphere of 5% CO2 at 37° C. Cells were dissociated with 0.05% Trypsin and 0.02% EDTA.

[2] = tested on: HCT-116 cells; assay: HCT-116 human colon tumor cell viability assay (CellTiter-Glo); format: cell-based; settings: small molecules, 72 hours exposure
Protocol: as §1, §3
as §4, with “cell lines” for “cell line”, “A549 and HCT-116 were” for “A549 was”, “The HCT-116” for “The A549”, “maintained in McCoy's 5a” for “maintained RPMI 1640 w/L-glut”, “FBS. HCT-116” for “FBS. A549”
as §2, with “2.3×10^−6” for “2×10^−6”, “4.02” for “4.0”

[3] = tested on: HUVEC cells; assay: Human umbilical vein epithelial cell viability assay (CellTiter-Glo); format: cell-based; settings: small molecules, 72 hours exposure
Protocol: as §1, §3
The Human umbilical vein epithelial cells (HUVEC) were obtained from Lonza (Basel, Switzerland). The HUVEC line was grown in Endothelial Growth Medium with supplements and growth factors (BBE, hydrocortisone, hEGF, FBS and gentamicin/amphotericin-B). All cells were housed in an atmosphere of 5% CO2 at 37° C. Cells were dissociated with 0.05% Trypsin and 0.02% EDTA.
as §2, with “HUVEC cells were seeded at 1000 cells per well 24 hours prior to test agent exposure in a volume of […]. Cells” for “Cells”, “2.3×10^−6” for “2×10^−6”, “4.02” for “4.0”, “[…]” for “25 μL”, “CellTiter-Glog®” for “CellTiter-Glo®”

[4] = for T ½: buffer; for Natural Rate Constant: 37° C., 5 μM
Protocol: At the appropriate time points, a 50 μL sample was withdrawn and diluted with three volumes of methanol containing propranolol as an internal standard (one solution was made for the entire study). The concentration of carbamoylfumagillol in the solution was analyzed by LC/MS/MS over seven days.

[5] = in man; as metabolite of TNP-470; cited from earlier work
[6] = tested on: A549 tumor cells vs normal HUVEC cells; assay: A549/HUVEC selectivity (ratio of IC50s); format: cell-based, human
[7] = tested on: B16-F10 tumor cells; assay: In vivo B16-F10 murine melanoma, lung metastases counts; design: species or system C57B16 female mice; settings: 30 mg/kg, qod; sacrificed after 15 days
Protocol: C57B16 female mice (N=8) were injected (tail vein) with 1×10^5 B16-F10 tumor cells. After one day, mice were treated with polymer conjugates as solutions in saline (IV administration, q4d, four doses except that in one group O-7175 was administered as a single dose on day 1). TNP-470 was used as a positive control, saline as a negative control. Mice were sacrificed after 15 days. Treatment outcomes were assessed by counting lung metastases.

[8] = target: T1, Cathepsin B (Bos taurus, UniProt P07688); assay: Cathepsin B release of fumagillol analogs from HPMA conjugates; format: in vitro ADME; settings: 40 nM Cathepsin B, approximately 2.5 mg/mL test agent, pH 5.5 or 6.8, 37° C., 0-24 hour, LC/MS/MS
T1 construct: purchased Sigma C6286
Protocol: Cathepsin B (Sigma Cat # C6286 Lot #025K7672) was diluted to a 10× concentration in activation buffer consisting of approximately 400 nM enzyme, 30 mM DTT, 15 mM EDTA and acetate buffer, pH=5.5 for 15 minutes at room temperature.
The HPMA conjugates were made into a 10× stock solution in pH 5.5 buffer. The final reaction was performed by diluting the enzyme and substrate 10 fold into either buffer at pH=5.5 or pH=6.8. The final enzymatic reaction consisted of 40 nM Cathepsin B, approximately 2.5 mg/mL test agent, and buffer at 37° C. The reaction was stopped at 0, 2, 6, and 24 hour. To stop the reaction, 3 volumes of ice-cold methanol containing propranolol internal standard (at 1.0 μM) was added and left on ice. The samples were then analyzed by LC/MS/MS.

[9] = tested on: A549 cells; format: in vitro ADME, human
Protocol: Cells were treated as in Example 51 except that at the end of 72 hour exposure to test agent, the cells were frozen (−70° C.) and stored for subsequent evaluation by LC/MS.

Molecule | A549 IC50 Average [1] | HCT116 IC50 Average [2] | HUVEC IC50 Average [3] | A549/HUVEC IC50 ratio [6] | products released by Cathepsin B [8] | further results
CO[C@@H]1[C@H](OC(N)=O)CC[C@]2(CO2)[C@H]1[C@@]1(C)O[C@@H]1CC=C(C)C [Carbamoylfumagillol] | 2.89 ng/mL | 1.035 ng/mL | 0.086 ng/mL | – | – | T ½ ([4]; pH 4): 5.38 days; T ½ ([4]; pH 5.3): 17 days; T ½ ([4]; pH 6.7): 30.3 days; T ½ ([4]; pH 8): 25.5 days; Natural Rate Constant ([4]; pH 4.0, 10 mM sodium acetate buffer): 0.0054 h⁻¹; Natural Rate Constant ([4]; pH 5.3, 10 mM sodium acetate buffer): 0.0017 h⁻¹; decomposition ([4]; pH 5.3 to 8.0, 37° C., over the seven day period): less than 20%; Natural Rate Constant ([4]; pH 6.7, potassium phosphate buffer): 0.0010 h⁻¹; Natural Rate Constant ([4]; pH 8.0, potassium phosphate buffer): 0.0011 h⁻¹; half-life [5]: 0.00833 days
CO[C@@H]1[C@H](OC(=O)N[C@@H](C(N)=O)C(C)C)CC[C@]2(CO2)[C@H]1[C@@]1(C)O[C@@H]1CC=C(C)C [Compound O-7177] | 0.215 ng/mL | 0.236 ng/mL | 0.101 ng/mL | 2.14 | – | –
CO[C@@H]1[C@H](O)CC[C@]2(CO2)[C@H]1[C@@]1(C)O[C@@H]1CC=C(C)C [Fumagillol] | 30.1 ng/mL | 45.8 ng/mL | 18.9 ng/mL | 1.59 | – | –
CO[C@@H]1[C@H](OC(=O)NC(=O)CCl)CC[C@]2(CO2)[C@H]1[C@@]1(C)O[C@@H]1CC=C(C)C [TNP-470, chloroacetylcarbamoylfumagillol] | – | – | – | 58.53 | – | IC50 ([1]; Homo sapiens, A549): 8.97 ng/mL (≈ 22.3 nM); IC50 ([2]; Homo sapiens, HCT-116, read-out: HCT116 IC50 Average): 2.64 ng/mL (≈ 6.57 nM); IC50 ([3]; Homo sapiens, HUVEC): 0.153 ng/mL (≈ 0.381 nM); Metastases Counts [7]: 39.5
poly(HPMA-co-MA-GFLG-N(Me)CH2CH2N(Me)CH2C(O)NHC(O)2-fumagill-6-yl) | – | – | – | – | fumagillol, carbamoylfumagillol, fumagil-6-yl methyl[2-(methylamino)ethyl]carbamate, and ethyl {2-[(aminoacetyl)(methyl)amino]ethyl}methylcarbamate | –
poly(HPMA-co-MA-GFLG-NHCH2CH2N(Me)CH2C(O)NHC(O)2-fumagill-6-yl) | – | – | – | – | fumagillol, carbamoylfumagillol, and fumagil-6-yl (2-aminoethyl)methylcarbamate | –
poly[HPMA-co-MA-GFLG-N-(6-aminohexyl)carbamoylfumagillol] | – | – | – | – | N-(6-aminohexyl)carbamoylfumagillol and fumagil-6-yl {6-[(aminoacetyl)amino]hexyl}carbamate | Metabolites identified from the treated cells [9]: N-(6-aminohexyl)carbamoylfumagillol,fumagill-6-yl {6-[(aminoacetyl)amino]hexyl}carbamate, and the epoxide hydrolysis product, (35′,7aR)-7a-(hydroxymethyl)-4-methoxy-3-methyl-2-(3-methylbut-2-en-1-yl)octahydro-1-benzofuran-3-ol-5-yl 6-aminohexyl carbamate
